Test results: the NIST ThermoML archive (doi:10.1016/j.jct.2010.04.015)
± gives the expanded uncertainty stated by the source.

Details: Liquid, Closed cell (Static) method

vapor or sublimation pressure (293.29 K) | vapor or sublimation pressure (303.35 K) | vapor or sublimation pressure (313.24 K) | vapor or sublimation pressure (323.25 K) | vapor or sublimation pressure (332.57 K) | vapor or sublimation pressure (343.18 K) | vapor or sublimation pressure (353.17 K) | vapor or sublimation pressure (363.1 K) | vapor or sublimation pressure (373 K) | vapor or sublimation pressure (283.15 K) | vapor or sublimation pressure (293.14 K) | vapor or sublimation pressure (303.09 K) | vapor or sublimation pressure (313.08 K) | vapor or sublimation pressure (323.28 K) | vapor or sublimation pressure (333.12 K) | vapor or sublimation pressure (343.12 K) | vapor or sublimation pressure (363.17 K) | vapor or sublimation pressure (373.1 K) | Compound
0.0415 ± 0.001 kPa | 0.0975 ± 0.0019 kPa | 0.2191 ± 0.0028 kPa | 0.4556 ± 0.0048 kPa | 0.8745 ± 0.0082 kPa | 1.659 ± 0.011 kPa | 2.933 ± 0.014 kPa | 4.987 ± 0.019 kPa | 8.142 ± 0.025 kPa |  |  |  |  |  |  |  |  |  | CC(C)(N)CO [2-amino-2-methylpropan-1-ol]
 |  |  |  |  |  |  |  |  | 0.007 ± 0.0003 kPa | 0.016 ± 0.0006 kPa | 0.0346 ± 0.0009 kPa | 0.0707 ± 0.0014 kPa | 0.1418 ± 0.0021 kPa | 0.2604 ± 0.0031 kPa | 0.4742 ± 0.005 kPa | 1.419 ± 0.01 kPa | 2.315 ± 0.012 kPa | CN(C)CCCO [3-dimethylamino-1-propanol]
